Test system: Her2
Assay: Degradation of Her2 in BT-474 cells, Western blot (Method 1)
Format: cell-based, human
Conditions: 0.5 μM, overnight
Experimental: Human high-Her2 breast carcinoma BT474 (HTB-20), SK-BR-3 (HTB-30) and MCF-7 breast carcinoma (HTB-22) from American Type Culture Collection, VA, USA were grown in Dulbecco's modified Eagle's medium with 4 mM L-glutamine and antibiotics (100 IU/ml penicillin and 100 μg/ml streptomycine; GibcoBRL). To obtain exponential cell growth, cells were trypsinized, counted and seeded at a cell density of 0.5×10^6 cells/ml regularly, every 3 days. All, experiments were performed on day 1 after cell passage.
BT-474 cells are treated with 0.5 μM, 2 μM, or 5 μM of 17AAG (a positive control) or 0.5 μM, 2 μM, or 5 μM of a compound of the invention overnight in DMEM medium. After treatment, each cytoplasmic sample is prepared from 1×10^6 cells by incubation of cell lysis buffer (#9803, Cell Signaling Technology) on ice for 10 minutes. The resulting supernatant used as the cytosol fractions is dissolved with sample buffer for SDS-PAGE and run on a SDS-PAGE gel, blotted onto a nitrocellulose membrane by using semi-dry transfer. Non-specific binding to nitrocellulose is blocked with 5% skim milk in TBS with 0.5% Tween at room temperature for 1 hour, then probed with anti-Her2/ErB2 mAb (rabbit IgG, #2242, Cell Signaling) and anti-Tubulin (T9026, Sigma) as housekeeping control protein. […]

`C=CCNC1=C2C[C@@H](C)C[C@H](OC)[C@H](O)[C@@H](C)/C=C(\C)[C@H](OC(N)=O)[C@@H](OC)/C=C\C=C(/C)C(=O)NC(=CC1=O)C2=O` [Compound 17AAG, 17-allylamino-17-demethoxygeldanamycin] was tested, and the “degradation of Her2” value was “partial degradation of Her2”.

Source: US8648071B2, “Hydrazonamide compounds that modulate Hsp90 activity” (Synta Pharmaceuticals Corp., priority 2008, dated 2014)
